The source of these data is patent US6756370B1, “Piperidine alcohols” (Merck Patent GmbH, priority 1999, dated 2004).

Structures can show the parent of a compound that is named as a salt. Where two headings read alike, the source gives them in different places.

For series [1], the target named is T1, 5-HT2A receptors (Rattus norvegicus, UniProt P14842).
T1 construct: Frontal rat cortex is homogenized in ice-cold buffer; from tissue; host or cells: rat frontal cortex homogenate (membrane pellet)
Briefly: 5-HT2A receptor binding test ([3H]ketanserin displacement). As to the method:
For the in-vitro detection of the affinity for 5-HT2A receptors, it is possible to use, for example, the following test (Example A1). The 5-HT2A receptors are exposed to both [^3H]ketanserin (a substance known for its affinity for the receptor) and the test compound. The decrease in the binding of [^3H]ketanserin to the receptor is a sign of the affinity of the test substance for the 5-HT2A receptor. Detection is carried out analogously to the description of J. E. Leysen et al., Molecular Pharmacology, 1982, 21: 301-314 or as also described, for example, in EP 0320983.
Preparation of a suspension of 5-HT2A receptors: Frontal rat cortex is homogenized in ice-cold buffer. The homogenate is centrifuged for 10 minutes at 4° C. and 50,000×[sic]. The pellet is resuspended in 2.5 ml of ice-cold tris buffer, made up with 10 ml of additional buffer and centrifuged as described [lacuna]. The pellet is then resuspended in buffer and diluted to give a homogenate which contains 60 mg of material/ml. 0.1 ml of the suspension, 100 μl of a 5 nM solution of [^3H]ketanserin, 100 μl of a solution of the test compound (concentration in the range from 10^−5 to 10^−10 mol per litre) are added to the incubation tubes and made up to 1 ml with buffer. The tubes are incubated for 15 minutes at 37° C. After termination of the incubation by immersing the tubes in an ice bath, the cooled suspension is filtered through a glass filter in vacuo. The filters are washed 3× with 5 ml of cold buffer and then transferred to scintillation tubes. The filters are analysed by means of liquid scintillation spectrometry in 8 ml of Triton X scintillator fluid.
The IC50 values are indicated for the binding tests.

For series [2], the system named is DOI-induced head-twitching in mice. Briefly: DOI-induced head-twitching in mice (DOI antagonism). It is filed as in vivo. As to conditions: male mice, test compound orally, 30 minutes later 3 mg/kg of DOI intraperitoneally, observed for 15 minutes. The text has this:
Serotonin-2(5-HT2)agonists such as 1-(2,5-dimethoxy-4-iodophenyl)-2-aminopropane (DOI) induce sterotypic behaviour patterns such as, for example, head-twitching or ear-scratching in various animals such as, for example, mice or rats (N. A. Darmani et al., Pharmacol. Biochem. Behav. 1989, 36: 901-906; N. A. Darmani et al., Pharmacol. Biochem. Behav. 1990, 37: 95-99; N. A. Darmani et al., Pharmacol. Biochem. Behav. 1994, 48: 383-396; D. L. Willins and H. Y. Meltzer, J. Pharmacol. Exp. Ther., 1997, 282: 699-706).
DOI-induced head-twitching in mice is used in order to test compounds having 5-HT2A antagonistic properties. The test compound is orally administered to male mice. 30 minutes later, 3 mg/kg of DOI is [sic] are administered intraperitoneally. The animals are observed for 15 minutes and the number of head twitches is noted. Quantification of the in vivo antagonistic effect of the test compounds ensues by comparison with the number of head twitches from those investigations in which the animals were only DOI-treated.

Where [3] appears, read: frontal rat cortex homogenate, 15 minutes at 37° C.

T1 sequence (P14842 whole entry): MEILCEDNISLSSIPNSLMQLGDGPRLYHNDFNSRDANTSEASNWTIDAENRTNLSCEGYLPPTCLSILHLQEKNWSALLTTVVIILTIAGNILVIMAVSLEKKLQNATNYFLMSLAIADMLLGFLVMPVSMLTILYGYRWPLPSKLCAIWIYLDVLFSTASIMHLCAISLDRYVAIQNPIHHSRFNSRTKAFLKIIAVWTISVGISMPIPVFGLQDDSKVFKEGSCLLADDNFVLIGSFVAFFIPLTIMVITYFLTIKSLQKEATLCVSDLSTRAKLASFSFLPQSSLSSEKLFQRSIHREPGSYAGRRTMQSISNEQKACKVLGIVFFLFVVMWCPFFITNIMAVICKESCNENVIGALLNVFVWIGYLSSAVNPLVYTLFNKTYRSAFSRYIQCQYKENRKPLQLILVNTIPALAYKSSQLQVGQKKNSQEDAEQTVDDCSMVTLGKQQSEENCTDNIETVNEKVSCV

With “1-{1-[2-(2,3-dimethoxy-phenyl)ethyl]piperidin-4-yl}-1-(4-fluorophenyl)ethanol, hydroiodide”, the IC50 in series [1] (read-out: IC50 values (concentrations in mol/l at which 50% of the radioactive ligands are displaced from the binding sites), frontal rat cortex homogenate, 15 minutes at 37° C.) is 11 nM.

Take `Cc1cc(CCN2CCC(C(C)(O)c3ccc(F)cc3)CC2)sc1Cl` (racemic): the IC50 in series [1] (setting [3]) worked out at 4.2 nM.

In the case of `Cc1nc(CCN2CCC(C(C)(O)c3ccc(F)cc3)CC2)cs1` (racemic), the IC50 in series [1] (setting [3]) was 66 nM.

In the case of `Cc1ccccc1CCN1CCC(C(C)(O)c2ccc(C(F)(F)F)cc2)CC1` (racemic), the IC50 in series [1] (setting [3]) was 1.4 nM.

For `CC(O)(c1ccc(F)cc1)C1CCN(CCc2ccc(Cl)cc2Cl)CC1` (racemic), the IC50 in series [1] (setting [3]) is 2 nM.

In the case of `CC(O)(c1ccc(F)cc1)C1CCN(CCc2ccc(F)cc2F)CC1` (racemic), in series [1] (setting [3]), the IC50 turned out to be 0.83 nM.

Take `CC(O)(c1ccc(F)cc1)C1CCN(CCc2cc(Cl)sc2Cl)CC1` (racemic): the IC50 in series [1] (setting [3]) came to 2.2 nM.

`CC(O)(c1ccc(F)cc1)C1CCN(CCc2ccc(C#N)cc2)CC1` (racemic) had an IC50 in series [1] (setting [3]) of 27 nM.

For `CC(O)(c1ccc(F)cc1)C1CCN(CCc2ccc(C(F)(F)F)cc2)CC1` (racemic), in series [1] (setting [3]), the IC50 was 32 nM.

Consider `CC(O)(c1ccc(F)cc1)C1CCN(CCc2ccc(Br)s2)CC1` (racemic), for which the IC50 in series [1] (setting [3]) was determined as 3.9 nM.

`CC(O)(c1ccc(F)cc1F)C1CCN(CCc2ccc(Cl)s2)CC1` (racemic) showed an IC50 in series [1] (setting [3]) of 5.5 nM.

Take `CC(O)(c1ccc(C(F)(F)F)cc1)C1CCN(CCc2ccc(Cl)s2)CC1` (racemic): the IC50 in series [1] (setting [3]) stood at 8.6 nM.

Consider `COc1ccc(CCN2CCC(C(C)(O)c3ccc(F)cc3)CC2)s1` (racemic), for which, in series [1] (setting [3]), the IC50 came out at 21 nM.

In the case of `Cc1ccc(CCN2CCC(C(C)(O)c3ccc(F)cc3)CC2)s1` (racemic), in series [1] (setting [3]), the IC50 worked out at 0.89 nM.

`CC(O)(c1ccc(F)cc1)C1CCN(CCc2ccsc2)CC1` (racemic): the IC50 in series [1] (setting [3]) stood at 2.2 nM.

Broadly, the melting point is the temperature, or range, at which the solid turns liquid. In the case of `CC(O)(c1ccc(Cl)cc1)C1CCN(CCc2ccc(F)cc2)CC1.Cl` (racemic) [1-{1-[2-(4-fluorophenyl)ethyl]piperidin-4-yl}-1-(4-chlorophenyl)ethanol, hydrochloride], the melting point was 201 to 203 °C. In addition, the IC50 in series [1] (setting [3]) stood at 1.3 nM. In series [2], the “Inhibition [%], suppression of behaviour elicited (head-twitching in mice), DOI antagonism” value (“Inhibition [%], suppression” for short) was found to be 96%.

`CC(O)(c1ccc(F)cc1)C1CCN(CCc2ccc(F)cc2)CC1` (racemic) [1-{1-[2-(4-fluorophenyl)ethyl]piperidin-4-yl}-1-(4-fluorophenyl)ethanol]: the melting point was 122 to 123 °C. For the same compound, in series [1] (setting [3]), the IC50 is 1.3 nM.

Compound `CC(O)(c1ccc(Cl)s1)C1CCN(CCc2ccc(F)cc2)CC1` (racemic) [1-{1-[2-(4-fluorophenyl)ethyl]piperidin-4-yl}-1-(5-chlorothiophen-2-yl)ethanol] returned a melting point of 159 to 160 °C. The compound also came in with an IC50 in series [1] (setting [3]) of 0.75 nM. In series [2], the “Inhibition [%], suppression” value is 26%.

In turn, `CC(O)(c1cccc2c1OCCO2)C1CCN(CCc2ccc(F)cc2)CC1.Cl` (racemic) [1-{1-[2-(4-fluorophenyl)ethyl]piperidin-4-yl}-1-(benzo[1,4]dioxan-5-yl)ethanol, hydrochloride] gave a melting point of 209 to 212 °C. Besides, the IC50 in series [1] (setting [3]) was 3.7 nM. For the same compound, in series [2], the “Inhibition [%], suppression” value is 9%.

Consider `CC(O)(c1ccc(Cl)cc1)C1CCN(CCc2ccc(Cl)s2)CC1.Cl` (racemic) [1-{1-[2-(5-chlorothiophen-2-yl)ethyl]piperidin-4-yl}-1-(4-chlorophenyl)ethanol, hydrochloride], for which the melting point was in the range of 192 to 193 °C. The same compound showed an IC50 in series [1] (setting [3]) of 2.6 nM. For the same compound, the “Inhibition [%], suppression” value in series [2] is given as 28%.

For `CC(O)(c1ccc(F)cc1)C1CCN(CCc2ccc(Cl)s2)CC1` (racemic) [1-{1-[2-(5-chlorothiophen-2-yl)ethyl]piperidin-4-yl}-1-(4-fluorophenyl)ethanol], the IC50 in series [1] (setting [3]) was found to be 0.69 nM.

`CC(O)(c1ccccc1)C1CCN(CCc2ccc(Cl)s2)CC1.I` (racemic) [1-{1-[2-(5-chlorothiophen-2-yl)ethyl]piperidin-4-yl}-1-phenylethanol, hydroiodide] gave a melting point of 177 to 178 °C. Also, in series [1] (setting [3]), the IC50 was found to be 0.83 nM.

For the compound `CC(O)(c1ccc(F)cc1)C1CCN(CCc2cccs2)CC1.Cl` (racemic) [1-{1-[2-(thiophen-2-yl)ethyl]piperidin-4-yl}-1-(4-fluorophenyl)ethanol, hydrochloride], the melting point fell in the range of 222 to 223 °C.

In turn, `CC(O)(c1ccccc1)C1CCN(CCc2ccc(F)cc2)CC1.I` (racemic) [R1=4-fluorophenyl, R2=phenyl, HI, rac, 1-{1-[2-(4-fluorophenyl)ethyl]piperidin-4-yl}-1-phenylethanol, hydroiodide] yielded a melting point of 205 to 207 °C. The same compound came in with an IC50 in series [1] (setting [3]) of 0.68 nM.

`CC(O)(c1ccc(F)cc1)C1CCN(CCc2ccncc2)CC1` (racemic) [R1=4-pyridyl, R2=4-fluorophenyl, rac]: the IC50 in series [1] (setting [3]) is 220 nM.

In series [1] (setting [3]), `CC(O)(c1ccc(F)cc1)C1CCN(CCc2ccc(F)cc2F)CC1` (single isomer, unassigned) [listing 1 of 2 here] gave an IC50 of 40 nM.

For `CC(O)(c1ccc(F)cc1)C1CCN(CCc2ccc(F)cc2F)CC1` (single isomer, unassigned) [listing 2 of 2 here], the IC50 in series [1] (setting [3]) came to 2.9 nM.

`CC(O)(c1ccc(F)cc1F)C1CCN(CCc2ccc(F)cc2)CC1` (single isomer, unassigned) [listing 1 of 2 here] yielded an IC50 in series [1] (setting [3]) of 2200 nM.

For the compound `CC(O)(c1ccc(F)cc1F)C1CCN(CCc2ccc(F)cc2)CC1` (single isomer, unassigned) [listing 2 of 2 here], in series [1] (setting [3]), the IC50 was found to be 0.72 nM.

Regarding `CC(O)(c1ccc(F)cc1)C1CCN(CCc2ccsc2)CC1` (single isomer, unassigned) [listing 1 of 2 here], in series [1] (setting [3]), the IC50 was found to be 250 nM.

For the compound `CC(O)(c1ccc(F)cc1)C1CCN(CCc2ccsc2)CC1` (single isomer, unassigned) [listing 2 of 2 here], in series [1] (setting [3]), the IC50 amounted to 3.3 nM.

`CC(O)(c1ccc(F)cc1)C1CCN(CCc2ccc(F)cc2)CC1` (single isomer, unassigned; (+)) [(+)-1-{1-[2-(4-fluorophenyl)ethyl]piperidin-4-yl}-1-(4-fluorophenyl)ethanol, hydrochloride] displayed an IC50 in series [1] (setting [3]) of 0.35 nM.

In turn, `CC(O)(c1ccc(F)cc1)C1CCN(CCc2ccc(Cl)s2)CC1.Cl` (single isomer, unassigned; (+)) [(+)-1-{1-[2-(5-chlorothiophen-2-yl)ethyl]piperidin-4-yl}-1-(4-fluorophenyl)ethanol, hydrochloride] displayed a melting point of 210 to 211 °C. Besides, the IC50 in series [1] (setting [3]) was 1.1 nM. The “Inhibition [%], suppression” value in series [2] came out at 21%.

Consider `CC(O)(c1ccc(F)cc1)C1CCN(CCc2ccc(F)cc2)CC1.Cl` (single isomer, unassigned; (-)) [(−)-1-{1-[2-(4-fluorophenyl)ethyl]piperidin-4-yl}-1-(4-fluorophenyl)ethanol, hydrochloride], for which the melting point lay within 185 to 186 °C. The same compound yielded an IC50 in series [1] (setting [3]) of 57 nM.

As for `COc1cccc(C(O)C2CCN(CCc3ccc(F)cc3)CC2)c1OC` (stereo not drawn) [Comparison from EP 0531410, (+)-α-(2,3-dimethoxyphenyl)-1-[2-(4-fluorophenyl)-ethyl]-4-piperidinemethanol, reference compound], the “Inhibition [%], suppression” value in series [2] stood at 0%.
